Test system: male participants
Assay: Diastolic blood pressure pre- and post-treatment, 8 week EGCG study stratified by COMT genotype
Type: in vivo, human
Settings: 800 mg/day EGCG, 8 weeks
From the text: This was a double blind, single centre, randomised and parallel design study. A total of 95 male participants were recruited on to the study using the following criteria: • healthy (no significant history or current disease or medication) • non-diabetic • non-smokers • aged 40-65 years • Body Mass Index >28 <38 The study population were randomly assigned to one of two treatment groups. Each group was balanced for age and insulin resistance (homeostatic model of insulin resistance HOMAir). HOMAir was measured from mean fasting plasma glucose values as described by Mathews et al, Diabetologia (1985), 28, 412-419. 75 subjects consented to genotype analysis for the COMT polymorphism rs4680. The active treatment was 800 mg/day EGCG and the placebo treatment 800 mg/day lactose. Treatments were administered twice daily with food for 8 weeks, one 400 mg capsule in the morning and one 400 mg capsule in the evening. The diastolic blood pressure was measured pre- and post-treatment. During the three days before pre- and post-treatment study visits, participants refrained from exercise, alcohol and ate their normal diet which consisted of at least 150 g carbohydrates. Blood pressure was measured manually on the upper arm using a sphygmomanometer (UA-787, A and D Medical). Three measurements were taken at 5 minute intervals whilst participants rested in a semi-recumbent position and with participants rested for at least 5 minutes before the first measurement. All three measurements were used to derive mean blood pressure values. Non-smoking status and alcohol abstinence were verified using Micro CO meter (Micro Medical Ltd) and AlcoMate Pro (AK Solutions) monitors, respectively. All equipment was calibrated before use. The data was stratified based on the derived COMT genotype and analysed. For each treatment group and genotype subset the mean and standard deviation for the change from baseline to endpoint was calculated. Paired t-tests were used to assess whether the change from baseline was statistically significant (p<0.05).

O=C(O[C@@H]1Cc2c(O)cc(O)cc2O[C@@H]1c1cc(O)c(O)c(O)c1)c1cc(O)c(O)c(O)c1 [EGCG, epigallocatechin gallate]
diastolic blood pressure, change compared to baseline (AA (low activity) COMT genotype, paired t-test p=0.036): Statistically significant reductions
LSMean change from baseline in diastolic blood pressure, controlled for baseline (AA COMT genotype, p=0.044): statistically significant reduction
diastolic blood pressure, change compared to baseline (AG (intermediate activity) COMT genotype, paired t-test p=0.006): Statistically significant reductions
LSMean change from baseline in diastolic blood pressure, controlled for baseline (AG COMT genotype, p=0.012): statistically significant reduction
diastolic blood pressure, change compared to baseline (GG (high activity) COMT genotype, paired t-test p=0.647): not statistically significant
LSMean change from baseline in diastolic blood pressure, controlled for baseline (GG COMT genotype): not the GG group
